Experimental data taken from US20220081435A1, “ANDROGEN RECEPTOR PROTEIN DEGRADERS” (THE REGENTS OF THE UNIVERSITY OF MICHIGAN, priority 2019, published 2022).
Blank lines part the entries; values can stand above or below the molecule they belong to.

Key:
VHL-ElonginBC complex = target: T1, VHL-ElonginBC complex (Homo sapiens, UniProt P40337); test: Fluorescence-polarization competitive binding assay for VHL protein
T1 construct: His-TEV (cleaved yes); made in house; host or cells: E. coli BL21(DE3)
Protocol: Cloning and Purification of VHL-ElonginBC complex. […] The cells were induced overnight with 0.4 mM IPTG at 24° C. […] The cell suspension was lysed by sonication and debris removed via centrifugation. […] The protein complex was eluted in 20 mM Tris-HCl pH 7.0, 200 mM NaCl and 300 mM Imidazole, dialyzed into 20 mM Tris-HCl pH 7.0, 150 mM NaCl, and 0.01% bME and incubated with TEV protease overnight at 4° C. […] The flow through containing the VHL complex was diluted to 75 mM NaCl and applied to a HiTrap Q column (GE Healthcare). The sample was eluted with a salt gradient (0.075-1 M NaCl), concentrated and further purified on a Superdex S75 column (GE Healthcare) pre-equilibrated with 20 mM Bis-Tris 7.0, 150 mM NaCl and 1 mM DTT. Samples were aliquoted and stored at −80° C.
The IC50 and Ki values of compounds were determined in competitive binding experiments. […] IC50 values were determined by nonlinear regression fitting of the competition curves. Ki values of competitive inhibitors were obtained directly by nonlinear regression fitting, based upon the KD values of the probe and concentrations of the protein and probe in the competitive assays. All the FP competitive experiments were performed in duplicate in three independent experiments.

[1] = test system: AR-amplified prostate cancer cells; conditions: cited from earlier work
AR protein = target: T2, AR protein (Homo sapiens, UniProt P10275, T878A); test: AR protein degradation in LNCaP cells (Western blotting); assay type: cell-based; conditions: LNCaP, treatment time 6 h, average of three independent experiments
T2 construct: The percent AR protein degradation induced by these compounds at various concentrations in LNCaP cells; host or cells: LNCaP
T2 sequence (P10275 1-920 T878A): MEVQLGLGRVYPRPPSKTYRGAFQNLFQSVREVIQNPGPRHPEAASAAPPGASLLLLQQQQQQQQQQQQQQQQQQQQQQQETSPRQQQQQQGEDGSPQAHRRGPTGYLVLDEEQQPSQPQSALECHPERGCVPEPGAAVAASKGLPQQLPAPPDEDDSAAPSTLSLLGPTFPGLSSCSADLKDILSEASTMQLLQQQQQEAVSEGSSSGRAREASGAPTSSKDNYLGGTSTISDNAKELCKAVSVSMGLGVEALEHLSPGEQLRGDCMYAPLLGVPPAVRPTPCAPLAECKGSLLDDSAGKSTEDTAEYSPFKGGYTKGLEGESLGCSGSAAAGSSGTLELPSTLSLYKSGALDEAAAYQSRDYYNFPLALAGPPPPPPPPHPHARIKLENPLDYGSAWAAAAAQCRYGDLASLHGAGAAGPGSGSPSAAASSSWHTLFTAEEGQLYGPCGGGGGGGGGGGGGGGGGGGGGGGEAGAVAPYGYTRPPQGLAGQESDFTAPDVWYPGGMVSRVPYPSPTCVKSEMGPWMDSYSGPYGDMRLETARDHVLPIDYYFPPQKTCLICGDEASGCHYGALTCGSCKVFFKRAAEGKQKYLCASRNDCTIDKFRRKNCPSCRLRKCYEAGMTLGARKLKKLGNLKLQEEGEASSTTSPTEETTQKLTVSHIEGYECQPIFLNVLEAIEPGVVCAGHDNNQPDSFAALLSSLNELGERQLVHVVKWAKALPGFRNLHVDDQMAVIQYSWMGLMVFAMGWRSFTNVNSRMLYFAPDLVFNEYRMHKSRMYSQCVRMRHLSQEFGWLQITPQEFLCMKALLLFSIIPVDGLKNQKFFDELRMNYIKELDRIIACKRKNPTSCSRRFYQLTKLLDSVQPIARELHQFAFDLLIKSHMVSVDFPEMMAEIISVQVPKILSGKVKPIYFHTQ
How it was run: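 LNCaP cells were cultured with 10% FBS at 37° C and lysed in RIPA buffer after treatment. AR levels were measured by Western blot. Degradation percentage was quantified by densitometry as the background-corrected AR band relative to the loading control.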

IC50 (VHL-ElonginBC complex; FP competition, VHL protein and fluorescent probe both 5 nM): 164 ± 13 nM
Structure (SMILES): CC(=O)N[C@H](C(=O)N1C[C@H](O)C[C@H]1C(=O)N[C@@H](C)c1ccc(-c2scnc2C)cc1)C(C)(C)C [VHL-b, (2S,4R)-1-((S)-2-acetamido-3,3-dimethylbutanoyl)-4-hydroxy-N—((S)-1-(4-(4-methylthiazol-5-yl)phenyl)ethyl)pyrrolidine-2-carboxamide]

Structure (SMILES): Cc1ncsc1-c1ccc(CNC(=O)[C@@H]2C[C@@H](O)CN2C(=O)[C@@H](NC(=O)COCCCCOc2ccc(-c3ccc(N4C(=S)N(c5ccc(C#N)c(C(F)(F)F)c5)C(=O)C4(C)C)cc3)cc2)C(C)(C)C)cc1 [ARCC-4, (4R)-1-((S)-2-(2-(4-((4′-(3-(4-cyano-3-(trifluoromethyl)phenyl)-5,5-dimethyl-4-oxo-2-thioxoimidazolidin-1-yl)-[1,1′-biphenyl]-4-yl)oxy)butoxy)acetamido)-3,3-dimethylbutanoyl)-4-hydroxy-N-(4-(4-methylthiazol-5-yl)benzyl)pyrrolidine-2-carboxamide]
Inducing apoptosis and inhibiting proliferation, compared with enzalutamide [1]: more potent and effective than enzalutamide

Kd (VHL-ElonginBC complex; tracer binding to VHL complex (VHL, Elongin B, Elongin C)): 2.4 nM
Structure (SMILES): Cc1cc([C@H](C(=O)N2C[C@H](O)C[C@H]2C(=O)N[C@@H](CC(=O)NCCOCCOCCOCCNC(=O)c2ccc3c(c2)C(=O)OC32c3ccc(O)cc3Oc3cc(O)ccc32)c2ccc(-c3scnc3C)cc2)C(C)C)on1 [HXC78, (2S,4R)—N—((S)-1-(3′,6′-dihydroxy-3-oxo-3H-spiro[isobenzofuran-1,9′-xanthen]-5-yl)-17-(4-(4-methylthiazol-5-yl)phenyl)-1,15-dioxo-5,8,11-trioxa-2,14-diazaheptadecan-17-yl)-4-hydroxy-1-((R)-3-methyl-2-(3-methylisoxazol-5-yl)butanoyl)pyrrolidine-2-carboxamide, reference compound]

Structure (SMILES): Cc1cc([C@H](C(=O)N2C[C@H](O)C[C@H]2C(=O)N[C@@H](CC(=O)N2CCC(N3CCC(C#Cc4ccc(N5C(=S)N(c6cnc(C#N)c(C(F)(F)F)c6)C(=O)C56CCC6)cc4)CC3)CC2)c2ccc(-c3scnc3C)cc2)C(C)C)on1 [Compound 30, (2S,4R)—N—((S)-3-(4-((4-(7-(6-Cyano-5-(trifluoromethyl)pyridin-3-yl)-8-oxo-6-thioxo-5,7-diazaspiro[3.4]octan-5-yl)phenyl)ethynyl)-[1,4′-bipiperidin]-1′-yl)-1-(4-(4-methylthiazol-5-yl)phenyl)-3-oxopropyl)-4-hydroxy-1-((R)-3-methyl-2-(3-methylisoxazol-5-yl)butanoyl)pyrrolidine-2-carboxamide]
Dmax at 0.01 µM (AR protein; 0.01 μM): 38%
Dmax at 0.1 µM (AR protein; 0.1 μM, read-out: % AR protein degradation in LNCaP Cells): 80%
Dmax at 1 µM (AR protein; 1 μM, read-out: % AR protein degradation in LNCaP Cells): 95%
